Reference: article PMC8536682, “NPF activates a specific NPF receptor and regulates food intake in Pacific abalone Haliotis discus hannai” (Scientific Reports, 2021)
No end group written: not given here.

Key:
Hdh-NPFR [1] = test: Ca2+ mobilization (aequorin luminescence) assay in Hdh-NPFR-transfected CHO-K1 cells; assay type: cell-based, Haliotis discus hannai; conditions: Fig. 3g, Fig. S7b
Experimental: CHO-K1 cells were maintained in DMEM-F12 Nutrient Mixture Ham supplemented with 10% FBS (Welgene) at 37 °C in 5% CO2. Cells grown in a monolayer to 60% confluency in 100 mm dishes (1.5 × 10^6 cells) were transiently transfected with plasmids using FuGENE6 transfection reagent (Promega), according to the manufacturer’s recommendations. In brief, the transfection medium was prepared by combining 600 μl of DMEM-F12 with 2 μg of pcDNA3-HA-Hdh-NPFR plasmid together with 2 μg of a Ca^2+ reporter aequorin plasmid with or without the promiscuous Gα15 expression plasmid (kind gifts from Dr. Young-Joon Kim, Gwangju Institute of Science and Technology, Gwangju, Korea) with 18 μl of FuGENE6 in a 5 ml polystyrene tube and incubated for 25 min at room temperature. The transfection mixture was added to CHO-K1 cells in 10 ml of fresh FBS-free medium and the cells were incubated at 37 °C in 5% CO2 overnight. On the day of the assay, the cells were detached from the culture dish by incubating with 3 ml of 5 mM EDTA in phosphate-buffered saline (PBS, pH 7.2; Thermo Fisher Scientific, Waltham, MA, USA) for 5 min. The cells were washed in 10 ml of phenol red-free DMEM/F-12 with 0.1% bovine serum albumin (BSA) and 1% P/S (DMEM-prf), and collected by brief centrifugation. Probenecid (1.25 mM final concentration, Invitrogen) and coelenterazine (5 μM, Gold Biotech., St. Louis, MO, USA) were added to resuspended CHO-K1 cells in 5 ml of DMEM-prf medium and the cells were gently agitated for 2.5 h using a magnetic stirrer at room temperature shielded from light. The cell suspension was diluted four times with DMEM-prf and incubated for a further 30 min. Just before the Ca^2+ mobilization assay, peptide solutions were prepared in DMEM-prf and 50 μl aliquots were dispensed into 3 or 4 wells/peptide on 96-well microplates. DMEM-prf was used as a negative control. While stirring gently, 50 μl of the cell suspension was injected into a luminescence microplate reader (Berthold Tech.) using an automated injector unit. Luminescence was recorded for 20 s and for a further 10 s after injection of DMEM-prf including 0.2% Triton X-100 to measure the total Ca^2+ response. The average luminescence from multiple replicate wells for a single concentration was calculated and normalized to the largest receptor response after subtraction of background values obtained from negative controls. Dose–response curves and EC50 values were obtained using Sigma Plot v.13 (Systat Software, Inc., San Jose, CA, USA).

Hdh-NPFR [2] = test: Western blot of ERK1/2 phosphorylation in Hdh-NPFR-expressing HEK293 cells; assay type: cell-based, Haliotis discus hannai; conditions: inhibitor 10^–5 M pre-incubated 1 h, then Hdh-NPF (10^–8, 10^–6 M) 5 min; Fig. 3f
Experimental: HEK293 cells were seeded into 6-well plates (0.3 × 10^6 cells/well) and transfected with 3 μg of pcDNA3-HA-Hdh-NPFR or pcDNA3 as described for the reporter assays. At 36 h post-transfection, the transfected cells were treated with Hdh-NPF (10^–9–10^–7 M), TPA (10^–7 M), or the same volume of peptide-free medium as a vehicle for 10 min. After washing twice with PBS, the cells were lysed with RIPA buffer [150 mM NaCl, 1% Triton X-100, 0.5% sodium deoxycholate, 0.1% sodium dodecyl sulfate (SDS), 50 mM Tris–Cl, pH 8.0] including protease inhibitor cocktail and PhosSTOP (Roche, Basel, Switzerland) according to the manufacturer’s recommendation. To examine signaling pathways, Hdh-NPFR-transfected cells were pre-incubated with serum-free DMEM for 6 h at 37 °C and exposed to a PKA inhibitor (H89, 10^–5 M; Sigma-Aldrich) or PKC inhibitor (Gӧ6983, 10^–5 M; Sigma-Aldrich) for a further 60 min. After replacing the medium with fresh serum-free DMEM, the cells were exposed to Hdh-NPF peptide (10^–8, 10^–6 M) for 5 min at 37 °C. The cell lysates were separated by 10% SDS–polyacrylamide gel electrophoresis and subsequently transferred to nitrocellulose membranes (Pall, Ann Arbor, MI, USA). […] The reactive bands were monitored using C-Digit 3600 Bolt Scanner (LI-COR, Lincoln, NE, USA).

[3] = tested on: pcDNA3-transfected HEK293 cells; test: CRE-Luc luciferase reporter assay in pcDNA3-transfected HEK293 cells; assay type: cell-based, human; conditions: pcDNA3-transfected HEK293 cells (no receptor); Fig. 3d
Experimental: HEK293 cells were cultured in Dulbecco’s modified Eagle medium (DMEM; Gibco, Loughborough, UK) containing 1% penicillin/streptomycin (P/S; Invitrogen) and 10% fetal bovine serum (FBS; Hyclone, GE Healthcare, Chicago, IL, USA). Sixteen hours before transfection, cultured HEK293 cells were seeded into 24-well plates (5 × 10^4 cells/well). The cells were transfected with a luciferase reporter plasmid of CRE-Luc[68] or SRE-Luc[69] using a polyethyleneimine transfection reagent (Sigma-Aldrich, St. Louis, MO, USA), along with pcDNA3-HA plasmids containing Hdh-NPFR-related receptors, human NPYR1 and NPYR2 (kindly provided by Dr. Annette G. Beck-Sickinger, Leipzig University, Germany), and a pRSV-β-galactosidase expression plasmid as an internal control (100 ng of each plasmid/well) as previously reported. After 3 h of transfection, the culture medium was replaced by new DMEM with 1% P/S and 10% FBS, and the HEK293 cells were further cultured for 30 h and then maintained in DMEM without FBS for 16 h. […] The cells were lysed with a luciferase cell culture lysis buffer (Promega, Madison, WI, USA) and luciferase activities were analyzed using a microplate-luminometer (Berthold Tech., Bad Wildbad, Germany) and normalized by the β-galactosidase values detected by an absorbance microplate reader (Tecan, Mannedorf, Switzerland) at 405 nm.

| Molecule | Ca2+ mobilization response (Hdh-NPFR [1]) | further results |
| --- | --- | --- |
| QLRQYLKALNEYYAIVGRPRF-NH2 [Hdh-NPF-C21, truncated Hdh-NPF peptide] | could not induce | – |
| COc1ccc2c(c1)c(C1=C(c3c[nH]c4ccccc34)C(=O)NC1=O)cn2CCCN(C)C [Gӧ6983] | – | Effect of inhibitor on Hdh-NPFR-mediated activation of ERK1/2 (Hdh-NPFR [2]): abolished |
| YAIVGRPRF-NH2 [Hdh-NPF-C9, truncated Hdh-NPF peptide] | could not induce | – |
| QDAMLAPPDRPSEFRSPDQLRQYLKALNEYYAIVGRPRF-NH2 [Hdh-NPF] | – | EC50 [3]: 596 nM |
| YPSKPDNPGEDAPAEQLRQYLKALNEYYAIVGRPRF-NH2 [NPY-F, chimeric mixed peptide for Hdh-NPF and human NPY] | could not activate | – |
| QDAMLAPPDRPSEFRSPD-NH2 [Hdh-NPF-N18, truncated Hdh-NPF peptide] | could not induce | – |
